melting point | Structure (SMILES)
112 to 118 °C | Cn1cc(C(N)=O)c(Nc2ccc(C(F)(F)C(F)(F)C(F)(F)C(F)(F)F)cc2F)cc1=O
205 to 208 °C | Cn1cc(C(=O)NCCO)c(Nc2ccc(I)cc2F)cc1=O [Example 4, 4-(2-Fluoro-4-iodoanilino)-N-(2-hydroxyethyl)-1-methyl-6-oxo-1,6-dihydro-3-pyridinecarboxamide]
265 to 273 °C | C#Cc1ccc(Nc2cc(=O)[nH]cc2C(=O)NCCO)c(F)c1 [Example 12, 4-(4-Ethynyl-2-fluoroanilino)-N-(2-hydroxyethyl)-6-oxo-1,6-dihydro-3-pyridinecarboxamide]
256 to 258 °C | CCc1ccc(Nc2cc(=O)[nH]cc2C(=O)NCCO)c(F)c1 [Example 13]
249 to 252 °C | C#Cc1ccc(Nc2cc(=O)[nH]cc2C(=O)NCCCO)c(F)c1 [Example 15, 4-(4-Ethynyl-2-fluoroanilino)-N-(3-hydroxypropyl)-6-oxo-1,6-dihydro-3-pyridinecarboxamide]
231 to 233 °C | CCc1ccc(Nc2cc(=O)[nH]cc2C(=O)NCCCO)c(F)c1 [Example 16, 4-(4-Ethyl-2-fluoroanilino)-N-(3-hydroxypropyl)-6-oxo-1,6-dihydro-3-pyridinecarboxamide]
268 to 272 °C | CCc1ccc(Nc2cc(=O)n(C)cc2C(N)=O)c(F)c1 [Example 18, 4-(4-Ethyl-2-fluoroanilino)-1-methyl-6-oxo-1,6-dihydro-3-pyridinecarboxamide]
212 to 215 °C | NC(=O)c1cn(CCO)c(=O)cc1Nc1ccc(I)cc1F [Example 22, 4-(2-Fluoro-4-iodoanilino)-1-(2-hydroxyethyl)-6-oxo-1,6-dihydro-3-pyridinecarboxamide]
174 to 176 °C | O=C(NCCCO)c1cn(CCO)c(=O)cc1Nc1ccc(I)cc1F [Example 23, 4-(2-Fluoro-4-iodoanilino)-1-(2-hydroxyethyl)-N-(3-hydroxypropyl)-6-oxo-1,6-dihydro-3-pyridinecarboxamide]
296 to 300 °C | NC(=O)c1cn(CC(=O)O)c(=O)cc1Nc1ccc(I)cc1F [Example 25]
146 to 150 °C | N#CCCCn1cc(C(N)=O)c(Nc2ccc(I)cc2F)cc1=O [Example 26, 1-(3-Cyanopropyl)-4-(2-fluoro-4-iodoanilino)-6-oxo-1,6-dihydro-3-pyridinecarboxamide]
260 to 262 °C | CCn1cc(C(N)=O)c(Nc2ccc(I)cc2F)cc1=O [Example 27, 1-Ethyl-4-(2-fluoro-4-iodoanilino)-6-oxo-1,6-dihydro-3-pyridinecarboxamide]
218 to 220 °C | CCCn1cc(C(N)=O)c(Nc2ccc(I)cc2F)cc1=O [Example 28, 4-(2-Fluoro-4-iodoanilino)-6-oxo-1-propyl-1,6-dihydro-3-pyridinecarboxamide]
114 to 116 °C | COCCOCCn1cc(C(N)=O)c(Nc2ccc(I)cc2F)cc1=O [Example 29, 4-(2-Fluoro-4-iodoanilino)-1-[2-(2-methoxyethoxy)ethyl]-6-oxo-1,6-dihydro-3-pyridinecarboxamide]
220 to 223 °C | NC(=O)c1cn(CCCO)c(=O)cc1Nc1ccc(I)cc1F [Example 32, 4-(2-Fluoro-4-iodoanilino)-1-(3-hydroxypropyl)-6-oxo-1,6-dihydro-3-pyridinecarboxamide]
232 to 238 °C | Cn1cc(C(=O)NOCCO)c(Nc2ccc(F)cc2F)cc1=O [Example 33, 4-(2,4-Difluoroanilino)-N-(2-hydroxyethoxy)-1-methyl-6-oxo-1,6-dihydro-3-pyridinecarboxamide]
129 to 132 °C | Cn1cc(C(=O)NCCCO)c(Nc2ccc(F)cc2F)cc1=O [Example 34, 4-(2,4-Difluoroanilino)-N-(3-hydroxypropyl)-1-methyl-6-oxo-1,6-dihydro-3-pyridinecarboxamide]
